In article PMC9412374, “Design, Synthesis, and Development of pyrazolo[1,5-a]pyrimidine Derivatives as a Novel Series of Selective PI3Kδ Inhibitors: Part I—Indole Derivatives” (Pharmaceuticals, 2022):
Values joined by “and” are separate entries in the source; they are usually repeats but may differ in a detail not shown here. Equal values may be shown once. Read-outs that look alike come from different tables or passages of the source.

Legend:
PI3Kδ = target: T1, PI3Kδ (Homo sapiens, UniProt O00329); assay: In vitro kinase inhibition assay for PI3K (ADP-Glo), PI3Kδ; assay type: biochemical; conditions: recombinant kinase, mean of two independent experiments
T1 construct: purchased Merck Millipore
T1 sequence (P27986 whole entry): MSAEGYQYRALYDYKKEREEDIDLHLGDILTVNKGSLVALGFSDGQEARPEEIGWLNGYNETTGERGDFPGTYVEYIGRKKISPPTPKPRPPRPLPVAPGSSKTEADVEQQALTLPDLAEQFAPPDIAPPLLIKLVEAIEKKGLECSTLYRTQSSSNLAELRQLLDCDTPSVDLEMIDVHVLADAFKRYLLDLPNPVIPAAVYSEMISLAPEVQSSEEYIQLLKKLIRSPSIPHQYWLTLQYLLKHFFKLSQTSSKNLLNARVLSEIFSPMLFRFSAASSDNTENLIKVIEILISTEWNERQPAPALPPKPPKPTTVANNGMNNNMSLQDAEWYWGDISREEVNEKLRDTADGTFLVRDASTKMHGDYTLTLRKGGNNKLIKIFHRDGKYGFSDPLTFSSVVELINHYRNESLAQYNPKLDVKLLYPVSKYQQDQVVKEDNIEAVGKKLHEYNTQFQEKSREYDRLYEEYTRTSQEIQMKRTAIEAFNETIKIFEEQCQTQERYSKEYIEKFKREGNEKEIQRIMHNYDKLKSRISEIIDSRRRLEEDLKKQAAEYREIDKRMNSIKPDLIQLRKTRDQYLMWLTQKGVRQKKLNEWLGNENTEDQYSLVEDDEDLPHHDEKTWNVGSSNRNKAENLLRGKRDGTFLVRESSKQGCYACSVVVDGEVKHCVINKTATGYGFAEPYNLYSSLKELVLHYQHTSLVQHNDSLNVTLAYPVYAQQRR
T1 sequence (O00329 whole entry): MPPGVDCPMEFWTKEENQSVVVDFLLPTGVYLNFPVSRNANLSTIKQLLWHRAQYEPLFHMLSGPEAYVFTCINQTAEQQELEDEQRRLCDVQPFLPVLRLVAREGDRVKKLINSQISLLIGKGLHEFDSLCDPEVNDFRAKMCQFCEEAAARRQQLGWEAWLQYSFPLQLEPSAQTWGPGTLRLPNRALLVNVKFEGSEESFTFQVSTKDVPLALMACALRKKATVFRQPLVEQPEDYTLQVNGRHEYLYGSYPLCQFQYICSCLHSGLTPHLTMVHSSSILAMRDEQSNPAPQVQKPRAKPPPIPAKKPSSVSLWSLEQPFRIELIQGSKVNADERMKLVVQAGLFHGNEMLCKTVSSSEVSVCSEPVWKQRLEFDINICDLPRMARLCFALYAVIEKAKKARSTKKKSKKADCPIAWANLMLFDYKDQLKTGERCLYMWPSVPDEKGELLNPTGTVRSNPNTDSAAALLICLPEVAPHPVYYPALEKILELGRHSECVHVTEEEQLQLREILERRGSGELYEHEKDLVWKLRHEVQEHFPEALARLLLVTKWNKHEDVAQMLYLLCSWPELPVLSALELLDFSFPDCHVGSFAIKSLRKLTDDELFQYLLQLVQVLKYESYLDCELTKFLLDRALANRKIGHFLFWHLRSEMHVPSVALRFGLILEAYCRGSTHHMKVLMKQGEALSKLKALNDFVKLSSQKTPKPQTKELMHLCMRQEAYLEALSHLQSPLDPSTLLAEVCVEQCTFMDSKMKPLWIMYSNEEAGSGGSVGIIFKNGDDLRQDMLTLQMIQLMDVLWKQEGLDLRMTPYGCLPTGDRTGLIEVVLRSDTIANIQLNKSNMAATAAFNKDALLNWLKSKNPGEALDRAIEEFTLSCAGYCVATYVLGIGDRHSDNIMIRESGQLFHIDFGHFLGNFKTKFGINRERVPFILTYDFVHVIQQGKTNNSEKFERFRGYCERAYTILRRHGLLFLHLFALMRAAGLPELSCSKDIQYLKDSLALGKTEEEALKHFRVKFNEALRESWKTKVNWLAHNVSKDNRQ
Description: Tested compounds were dissolved in 100% DMSO, and obtained solutions were serially diluted in 1× reaction buffer. The recombinant kinase solution was diluted in a reaction mixture comprising 5× reaction buffer, respective compound solution (1 mM sodium diacetate 4,5-bisphosphate phosphatidylinositol (PIP2) solution in 40 mM Tris buffer), and water. In a 96-wells plate, 5 μL of compound solutions and 15 μL of the kinase solution in the reaction mixture were added per well. To initiate the interaction of chemical compounds to be tested with the enzyme, the plate was incubated for 10 min at a suitable temperature in a plate thermostat with orbital shaking at 600 rpm. Negative control wells contained all the above reagents except tested compound and kinase, and positive control wells contained all the above reagents except tested compounds. […] Subsequently, the plate was incubated for 1 h at 25 or 30 °C (depending on the PI3K isoform tested) in a plate thermostat with orbital shaking of the plate contents at 600 rpm. The reaction conditions are combined in the table below (Table 6).
Detection of ADP formed in the enzymatic reaction was then performed using ADP-Glo Kinase Assay™ (Promega, Madison, WI, USA). To the wells of a 96-well plate, 25 μL of ADP-Glo Reagent™ was added, and the plate was incubated for 40 min at 25 °C in a plate thermostat with orbital shaking at 600 rpm. Then 50 μL of Kinase Detection Reagent were added to each well, and the plate was incubated for 40 min at 25 °C in a plate thermostat with orbital shaking at 600 rpm. Once the incubation was complete, the luminescence intensity was measured using a Victor Light luminometer (Perkin Elmer, Inc., Waltham, MA, USA). IC50 values were determined based on luminescence intensity measured in wells containing tested compounds at different concentrations in relation to control wells. […] Each compound was tested at least in quadruplicates (4 wells) on two 96-well plates utilizing at least 4 wells for each control.

PI3Kα = target: T2, PI3Kα (Homo sapiens, UniProt P42336); assay: In vitro kinase inhibition assay for PI3K (ADP-Glo), PI3Kα; assay type: biochemical; conditions: for IC50: recombinant kinase, ADP-Glo, mean of two independent experiments; for Fold Selectivity α/δ: ratio of IC50 PI3Kα to IC50 PI3Kδ
T2 construct: purchased Carna Biosciences
T2 sequence (P42336 whole entry): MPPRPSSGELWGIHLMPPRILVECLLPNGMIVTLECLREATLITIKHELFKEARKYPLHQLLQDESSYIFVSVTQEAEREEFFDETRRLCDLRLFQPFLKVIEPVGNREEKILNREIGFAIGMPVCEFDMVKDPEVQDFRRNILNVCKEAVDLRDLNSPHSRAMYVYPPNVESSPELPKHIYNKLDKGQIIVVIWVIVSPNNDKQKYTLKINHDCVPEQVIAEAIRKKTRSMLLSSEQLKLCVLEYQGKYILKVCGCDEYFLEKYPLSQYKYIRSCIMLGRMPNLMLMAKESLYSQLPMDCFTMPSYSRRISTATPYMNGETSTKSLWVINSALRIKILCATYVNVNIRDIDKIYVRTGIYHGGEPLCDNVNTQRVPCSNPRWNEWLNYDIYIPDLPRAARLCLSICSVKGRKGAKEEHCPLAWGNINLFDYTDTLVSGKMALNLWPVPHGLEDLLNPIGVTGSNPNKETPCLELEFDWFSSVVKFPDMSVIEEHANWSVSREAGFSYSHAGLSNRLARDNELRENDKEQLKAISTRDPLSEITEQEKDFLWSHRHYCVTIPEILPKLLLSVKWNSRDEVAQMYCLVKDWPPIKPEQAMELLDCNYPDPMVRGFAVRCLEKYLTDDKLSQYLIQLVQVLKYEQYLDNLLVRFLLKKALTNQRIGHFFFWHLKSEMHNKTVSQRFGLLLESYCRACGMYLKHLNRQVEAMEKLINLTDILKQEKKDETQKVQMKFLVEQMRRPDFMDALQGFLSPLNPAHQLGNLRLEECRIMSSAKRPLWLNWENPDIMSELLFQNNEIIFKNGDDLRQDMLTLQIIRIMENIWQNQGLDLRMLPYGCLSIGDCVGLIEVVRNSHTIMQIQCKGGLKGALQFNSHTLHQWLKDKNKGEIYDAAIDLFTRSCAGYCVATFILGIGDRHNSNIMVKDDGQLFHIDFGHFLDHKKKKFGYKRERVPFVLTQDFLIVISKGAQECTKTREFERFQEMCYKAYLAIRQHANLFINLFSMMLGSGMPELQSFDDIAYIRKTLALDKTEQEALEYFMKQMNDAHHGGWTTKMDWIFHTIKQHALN
T2 sequence (P27986 whole entry partner): as the sequence (P27986 whole entry) above
Description: Tested compounds were dissolved in 100% DMSO, and obtained solutions were serially diluted in 1× reaction buffer. The recombinant kinase solution was diluted in a reaction mixture comprising 5× reaction buffer, respective compound solution (1 mM sodium diacetate 4,5-bisphosphate phosphatidylinositol (PIP2) solution in 40 mM Tris buffer), and water. In a 96-wells plate, 5 μL of compound solutions and 15 μL of the kinase solution in the reaction mixture were added per well. To initiate the interaction of chemical compounds to be tested with the enzyme, the plate was incubated for 10 min at a suitable temperature in a plate thermostat with orbital shaking at 600 rpm. Negative control wells contained all the above reagents except tested compound and kinase, and positive control wells contained all the above reagents except tested compounds. The enzymatic reaction was initiated by adding 5 μL of 150 μM ATP solution. Subsequently, the plate was incubated for 1 h at 25 or 30 °C (depending on the PI3K isoform tested) in a plate thermostat with orbital shaking of the plate contents at 600 rpm. The reaction conditions are combined in the table below (Table 6).
Detection of ADP formed in the enzymatic reaction was then performed using ADP-Glo Kinase Assay™ (Promega, Madison, WI, USA). To the wells of a 96-well plate, 25 μL of ADP-Glo Reagent™ was added, and the plate was incubated for 40 min at 25 °C in a plate thermostat with orbital shaking at 600 rpm. Then 50 μL of Kinase Detection Reagent were added to each well, and the plate was incubated for 40 min at 25 °C in a plate thermostat with orbital shaking at 600 rpm. Once the incubation was complete, the luminescence intensity was measured using a Victor Light luminometer (Perkin Elmer, Inc., Waltham, MA, USA). IC50 values were determined based on luminescence intensity measured in wells containing tested compounds at different concentrations in relation to control wells. These values were calculated with Graph Pad 5.03 software by fitting the curve using non-linear regression. Each compound was tested at least in quadruplicates (4 wells) on two 96-well plates utilizing at least 4 wells for each control. Averaged results of inhibition activity respective to specific isoforms of PI3K kinases for tested compounds are presented as IC50 values in Table 1, Table 2, Table 3 and Table 4.

Row | Structure (SMILES) | IC50 (PI3Kδ; read-out: IC50 PI3Kδ) | IC50 (PI3Kα; IC50 PI3Kα) | Fold Selectivity α/δ (PI3Kα) | IC50 (PI3Kδ; read-out: IC50 PI3K δ) | IC50 (PI3Kα; IC50 PI3K α)
1 | Cc1cc2nc(-n3c(C)nc4ccccc43)cc(N3CCOCC3)n2n1 [Compound 5, 2-methyl-5-(2-methylbenzimidazol-1-yl)-7-(morpholin-4-yl)pyrazolo[1,5-a]pyrimidine] | 3560 nM | 35100 nM | 9.9 | – | –
2 | CCc1nc2ccccc2n1-c1cc(N2CCOCC2)n2nc(C)cc2n1 [Compound 6, 2-methyl-5-(2-ethylbenzimidazol-1-yl)-7-(morpholin-4-yl)pyrazolo[1,5-a]pyrimidine] | 2300 nM | 25900 nM | 11 | – | –
3 | Cc1cc2nc(-n3c(C(F)F)nc4ccccc43)cc(N3CCOCC3)n2n1 [Compound 7, 2-methyl-5-(2-difluoromethylbenzimidazol-1-yl)-7-(morpholin-4-yl)pyrazolo[1,5-a]pyrimidine] | 470 nM and 475 nM | 1060 nM | 2.2 | – | –
4 | Cc1cc(Nc2cc(N3CCOCC3)n3nc(C)cc3n2)[nH]n1 [Compound 9, 3-methyl-N-[2-methyl-7-(morpholin-4-yl)pyrazolo[1,5-a]pyrimidin-5-yl]-1H-pyrazol-5-amine] | 43600 nM | > 60000 nM | >1.4 | – | –
5 | Cc1cc2nc(-c3cn[nH]c3)cc(N3CCOCC3)n2n1 [Compound 10, 2-methyl-7-(morpholin-4-yl)-5-(1H-pyrazol-4-yl)pyrazolo[1,5-a]pyrimidine] | 12700 nM | 36200 nM | 2.9 | – | –
6 | Cc1cc2nc(-c3ccc(N)nc3)cc(N3CCOCC3)n2n1 [Compound 11, 2-methyl-7-(morpholin-4-yl)-5-(2-aminopyridin-5-yl)pyrazolo[1,5-a]pyrimidine] | 6860 nM | 4640 nM | 0.7 | – | –
7 | Cc1cc2nc(-c3cccc4[nH]ncc34)cc(N3CCOCC3)n2n1 [Compound 12, 2-methyl-7-(morpholin-4-yl)-5-(1H-indazole-4-yl)pyrazolo[1,5-a]pyrimidine] | 3850 nM | 4810 nM | 1.2 | – | –
8 | Cc1cc2nc(-c3cccc4[nH]ccc34)cc(N3CCOCC3)n2n1 [Compound 13, 2-methyl-7-(morpholin-4-yl)-5-(1H-indole-4-yl)pyrazolo[1,5-a]pyrimidine] | 772 nM | 23500 nM | 30 | – | –
9 | CS(=O)(=O)N1CCN(Cc2cc3nc(-c4cccc5[nH]ccc45)cc(N4CCOCC4)n3n2)CC1 [Compound 23, 5-(1H-indol-4-yl)-2-((4-(methyl-sulphonyl)piperazin-1-yl)methyl)-7-(morpholin-4-yl)pyrazolo[1,5-a]pyrimidine] | 400 nM | 2350 nM | 5.8 | 402 nM | 2350 nM
10 | O[C@@H]1CCN(Cc2cc3nc(-c4cccc5[nH]ccc45)cc(N4CCOCC4)n3n2)C1 [Compound 25] | – | – | – | 1990 nM | –
11 | O[C@H]1CCN(Cc2cc3nc(-c4cccc5[nH]ccc45)cc(N4CCOCC4)n3n2)C1 [Compound 26] | – | – | – | 2210 nM | –
12 | O=S1(=O)CCN(Cc2cc3nc(-c4cccc5[nH]ccc45)cc(N4CCOCC4)n3n2)CC1 [Compound 27, 2-((1,1-dioxothiomorpholin-1-yl)-methyl)-5-(1H-indol-4-yl)-7-(morpholin-4-yl)pyrazolo[1,5-a]pyrimidine] | – | – | 33 | 266 nM | 8650 nM
13 | c1cc(-c2cc(N3CCOCC3)n3nc(CN4CCOCC4)cc3n2)c2cc[nH]c2c1 [Compound 28, 5-(1H-indol-4-yl)-7-(morpholin-4-yl)-2-((morpholin-4-yl)methyl)pyrazolo[1,5-a]pyrimidine] | – | – | – | 1070 nM | –
14 | CN1CCN(C2CCN(Cc3cc4nc(-c5cccc6[nH]ccc56)cc(N5CCOCC5)n4n3)CC2)CC1 [Compound 29, 5-(1H-indol-4-yl)-2-((4-(4-methylpiperazin-1-yl)piperidin-1-yl)methyl)-7-(morpholin-4-yl)pyrazolo[1,5-a]pyrimidine] | – | – | 301 | 52 nM | 15600 nM
15 | CCNC(=O)NC1CCN(Cc2cc3nc(-c4cccc5[nH]ccc45)cc(N4CCOCC4)n3n2)CC1 [Compound 30, 3-ethyl-1-(1-((5-(1H-indol-4-yl)-7-(morpholin-4-yl)pyrazolo[1,5-a]pyrimidin-2-yl)methyl)piperidin-4-yl)urea] | – | – | 39 | 360 nM | 14200 nM
16 | O=C(Nc1ccccc1)NC1CCN(Cc2cc3nc(-c4cccc5[nH]ccc45)cc(N4CCOCC4)n3n2)CC1 [Compound 31, 1-phenyl-3-(1-((5-(1H-indol-4-yl)-7-(morpholin-4-yl)pyrazolo[1,5-a]pyrimidin-2-yl)methyl)piperidin-4-yl)urea] | – | – | – | 559 nM | –
17 | COc1ccc(N2CCN(Cc3cc4nc(-c5cccc6[nH]ccc56)cc(N5CCOCC5)n4n3)CC2)cc1 [Compound 32, 5-(1H-indol-4-yl)-2-((4-(4-methoxyphenyl)piperazin-1-yl)-methyl)-7-(morpholin-4-yl)pyrazolo[1,5-a]pyrimidine] | – | – | 50 | 177 nM | 8790 nM
18 | CN1CCN(Cc2cc3nc(-c4cccc5[nH]ccc45)cc(N4CCOCC4)n3n2)CC1 [Compound 33, 5-(1H-indol-4-yl)-2-((4-methyl-piperazin-1-yl)methyl)-7-(morpholin-4-yl)pyrazolo[1,5-a]pyrimidine] | – | – | 220 | 193 nM | 42400 nM
19 | COC(=O)C1CCN(Cc2cc3nc(-c4cccc5[nH]ccc45)cc(N4CCOCC4)n3n2)CC1 [Compound 35, Methyl 1-((5-(1H-indol-4-yl)-7-(morpholin-4-yl)pyrazolo[1,5-a]pyrimidin-2-yl)methyl)piperidin-4-carboxylate] | – | – | 61 | 138 nM | 8460 nM
20 | c1cc(-c2cc(N3CCOCC3)n3nc(CN4CCN(C5CCCC5)CC4)cc3n2)c2cc[nH]c2c1 [Compound 40, 2-((4-cyclopentylpiperazin-1-yl)methyl)-5-(1H-indol-4-yl)-7-(morpholin-4-yl)pyrazolo[1,5-a]pyrimidine] | – | – | 329 | 42 nM | 13800 nM
21 | c1cc(-c2cc(N3CCOCC3)n3nc(CN4CCN(C5COC5)CC4)cc3n2)c2cc[nH]c2c1 [Compound 42] | – | – | 334 | 56 nM | 18700 nM
22 | c1cc(-c2cc(N3CCOCC3)n3nc(CN4CC5CC4CN5C4COC4)cc3n2)c2cc[nH]c2c1 [Compound 43, 5-(1H-indol-4-yl)-2-(((1S, 4S)-2-(oxetan-3-yl)-2,5-diaza-bicyclo [2.2.1]hept-2-yl)methyl)-7-(morpholin-4-yl)pyrazolo[1,5-a]pyrimidine] | – | – | 318 | 71 nM | 22600 nM
23 | c1cc(-c2cc(N3CCOCC3)n3nc(CN4CCN(CC5CC5)CC4)cc3n2)c2cc[nH]c2c1 [Compound 45, 2-((4-(cyclopropylmethyl)piperazin-1-yl)methyl)-5-(1H-indol-4-yl)-7-(morpholin-4-yl)pyrazolo[1,5-a]pyrimidine] | – | – | 218 | 29 nM | 6320 nM
